Results taken from publication PMC12867150, “A fungi-derived cyclic peptide enhances Th9-mediated antitumor immunity by targeting ZAP70 and SREBP1” (The Journal of Clinical Investigation, 2025).
Values joined by “and” are separate entries in the source; they are usually repeats but may differ in a detail not shown here. Equal entries are not always repeated.

Tests used:
Format in all cases: cell-based, mouse
Th9 cells [1] = assay: IL-9+ Th9 cells with oleic acid (S8I-J); conditions: OA 50 μM
From the text: LXR-α binding site ChREBP binding site USF1 binding site […] 2.1 1.8 2.1 […] 1.9 […] 20 20 0 […] + OA ✱✱✱✱ MIGR1 M Ctrl + OAEpA […] SREBP1 Ctrl SREBP1EpA ✱✱✱✱ ✱✱✱ 3 2 1 0 TNF-α MIGR1 SREBP1 […] SREBP1EpA Figure S8. EpA-associated modulation of lipid metabolism and its impact on Figure S8 Th9 cell function. (A-C) GSEA of RNA-seq data showing intracellular sterol transport (A), sterol transfer activity (B), and long-chain fatty acid transport (C) pathways in control and EpA-treated Th9 cells. […] (K and L) Flow-cytometric analysis of IL-9 expression in Th9 cells transduced with either control (MIGR1) or SREBP1- […]

TNF-α in Th9 cells = assay: Flow cytometry of TNF-α in Th9 cells in vitro (Figure 3F, 5I, 7C, S8M-N); conditions: for TNF (flow cytometric quantification): Figure 5I, single agent, individual replicates, (n = 5); for TNF-α expression: MEK/ERK blockade, even with EpA, result in words
Experimental: (§1) Naive CD4^+ T cells were isolated from the spleens of C57BL/6J or CD45.1^+ OT-II mice using the MojoSort Mouse CD4 Naive T Cell Isolation Kit (BioLegend, catalog 480040), following the manufacturer’s protocol. Purified cells were cultured in RPMI-1640 medium supplemented with 10% FBS, 1% penicillin-streptomycin, and 0.1% β-mercaptoethanol (Gibco, catalog 21985023).
(§2) T cell polarization was initiated under plate-bound anti-CD3 (2 μg/mL, clone 17A2, BioXCell, catalog BE0002) and soluble anti-CD28 (1 μg/mL, clone 37.51, BioXCell, catalog BE0015-1) stimulation, with the addition of cytokines and neutralizing antibodies specific to each subset. For Th9 cells, these included IL-4 (10 ng/mL, Peprotech, catalog 400-04), TGF-β (1 ng/mL, EPOTO Biotech, catalog HF-2021), anti–IL-12 (5 μg/mL, clone C17.8, BioXCell, catalog BE0051), and anti–IFN-γ (10 μg/mL, clone XMG1.2, BioXCell, catalog BE0055); for Th1 cells, these included IL-12 (10 ng/mL, GenScript, catalog Z03211-50) and anti–IL-4 (5 μg/mL, clone 11B11, BioXCell, catalog BE0045); for Th2 cells, these included IL-4 (50 ng/mL), anti–IFN-γ (20 μg /mL), anti–IL-12 (5 μg/mL), Th17 cells: IL-6 (20 ng/mL, EPOTO Biotech, catalog MF-1006), TGF-β (1 ng/mL), IL-1β (10 ng/mL, Peprotech, catalog AF-211-11B), anti–IFN-γ (10 μg/mL), anti–IL-12 (5 μg/mL), and anti–IL-4 (5 μg/mL); and for Tregs, these included TGF-β (3 ng/mL). After 3 days of initial culture, cells were either collected for downstream assays or continued in extended culture with refreshed cytokines to maintain lineage commitment.
(§3) Details regarding staining panels (human and mouse), reagents (including clones and catalog numbers), acquisition settings, compensation/controls, and analysis procedures are provided in Supplemental Methods.
(§4) BioLegend, Cat. No. 422301 or Mouse TruStain FcX™, BioLegend, Cat. No. 101319) for 10 minutes at 4°C. For surface marker detection, cells were stained with fluorochrome-conjugated monoclonal antibodies in 96-well V-bottom plates and incubated on ice for 30 minutes. After staining, cells were washed twice and resuspended in FACS buffer for analysis.
(§5) Prior to intracellular cytokine staining, cells were restimulated for 4 hours with PMA (Absin, Cat. No. abs9107), ionomycin (Sigma-Aldrich, Cat. No. I0634), and brefeldin A (MedChemExpress, Cat. No. HY-16592). For intracellular cytokine staining, cells were first surface-stained as described above, then fixed and permeabilized using the BD Cytofix/Cytoperm™ kit (BD Biosciences, Cat. No. 554714) according to the manufacturer ’s protocol. Intracellular proteins were stained with directly conjugated antibodies targeting IL-9, IL-17a, IL-4, IFN-γ, TNF-α, FOXP3, p-ZAP70, Perforin, and […]
(§6) Antibodies used for mouse samples included those against IL-9 (PE, clone RM9A4, Biolegend, Cat. No. 514104), IFN-γ (PE, clone XMG1.2, Biolegend, Cat. No.
(§7) Cat. No. 103138), CD4 (APC/Cy7, clone E-AB-F1353UJ, Elabscience, Cat. No.
(§8) AF18028), CD8α (PerCP/Cy5.5, clone E-AB-F1104UJ, Elabscience, Cat. No. […]
(§9) clone E-AB-F1187UH, Elabscience, Cat. No. AF19854), TNF-α (BV421, clone MP6-XT22, Biolegend, Cat. No. 506328), FOXP3 (PE, clone FJK-16s, eBioscience, Cat. No.
(§10) Perforin (APC, clone S16009A, Biolegend, Cat. No. 154303) and Granzyme B (APC, […]
(§11) clone QA16A02, Biolegend, Cat. No. 372203). […]

PD-1 on Th9 cells = assay: Flow cytometry of PD-1 on Th9 cells in vitro (Figure 5K, 7E, S3D); conditions: for PD1 (flow cytometric quantification): Figure 5K, single agent, individual replicates, (n = 5); for PD-1 expression: MEK/ERK blockade, even with EpA, result in words
Experimental: as §1, §2, §3, §4, §5, §6, §7, §8, §9, §10, §11

CD69 on Th9 cells = assay: Flow cytometry of CD69 on Th9 cells in vitro (Figure 5J, 7D); conditions: for CD69 (flow cytometric quantification): Figure 5J, single agent, individual replicates, (n = 5); for CD69 expression: MEK/ERK blockade, even with EpA, result in words
Experimental: as §1, §2, §3, §4, §5, §6, §7, §8, §9, §10, §11

[2] = system: mitochondria of Th9 cells; assay: Flow cytometry with MitoTracker Deep Red (Figure 4M, 5L, 7F, 7J); conditions: Figure 5L, single agent, individual replicates, (n = 3)
Experimental: […] Cells were incubated with the respective dyes, washed, and subjected to flow cytometry or fluorescence microscopy analysis. For ultrastructural assessment, mitochondrial number and diameter were quantified from high-resolution transmission electron microscopy (TEM) images using ImageJ software.

Th9 cells [3] = assay: IL-9+ Th9 cells with MEK or ERK inhibition (Figure 5H); conditions: for IL-9 (flow cytometric quantification): Figure 5H, single agent, individual replicates, (n = 5); for IL-9 production: trametinib 10 nM, temuterkib 100 nM, result in words
Experimental: (A) Identification and ranking of EpA-interacting proteins by affinity pulldown and LC-MS/MS, ordered by in silico binding energy predictions. […] (E) Flow-cytometric analysis of phosphorylated ZAP70 in Th9 cells 10 minutes after TCR activation (mean ± SEM, n = 3). (F) Pathway enrichment analysis of RNA-seq data showing MAPK/ERK-related pathways in EpA-treated Th9 cells. (G) Immunoblot analysis of total and phosphorylated MEK1/2 and ERK1/2 in control and EpA-treated Th9 cells. (H–L) Functional consequences of MEK or ERK inhibition in EpA-treated Th9 cells. […] Data in H–K are shown as mean ± SEM (n = 5) and in L as mean ± SEM (n = 3). Statistical significance was determined using 1-way ANOVA followed by Tukey’s test (E, H–L). *P < 0.05, **P < 0.01, ***P < 0.001, ****P < 0.0001.
as §2
The following pharmacological inhibitors were used at the indicated final concentrations: trametinib (MEK1/2 inhibitor; Selleck, catalog S4484) at 10 nM; temuterkib (ERK1/2 inhibitor; MCE, catalog HY-101494) at 100 nM; and fatostatin hydrobromide (SREBP inhibitor; MCE, catalog HY-14452A) at 5 μM. Dead cells were detected using Fixable Viability Dye eFluor 780 (eBioscience, catalog 65-0865).

| SMILES | Th9 polarization with oleic acid (Th9 cells [1]; result in words) | IL-9 gate number (Th9 cells [1]; representative flow plot, Figure S8I, EpA 10 μM) | TNF (flow cytometric quantification) (TNF-α in Th9 cells; listed as ERKin) | TNF-α expression (TNF-α in Th9 cells) | PD1 (flow cytometric quantification) (PD-1 on Th9 cells; listed as ERKin) | PD-1 expression (PD-1 on Th9 cells) | CD69 (flow cytometric quantification) (CD69 on Th9 cells; listed as ERKin) | CD69 expression (CD69 on Th9 cells) | Mito tracker (flow cytometric quantification) ([2]; listed as ERKin) | IL-9 (flow cytometric quantification) (Th9 cells [3]; listed as ERKin) | IL-9 production (Th9 cells [3]) | TNF (flow cytometric quantification) (TNF-α in Th9 cells; listed as MEKin) | PD1 (flow cytometric quantification) (PD-1 on Th9 cells; listed as MEKin) | CD69 (flow cytometric quantification) (CD69 on Th9 cells; listed as MEKin) | Mito tracker (flow cytometric quantification) ([2]; listed as MEKin) | IL-9 (flow cytometric quantification) (Th9 cells [3]; listed as MEKin) |
| --- | --- | --- | --- | --- | --- | --- | --- | --- | --- | --- | --- | --- | --- | --- | --- | --- |
| CCCCCCCC/C=C\CCCCCCCC(=O)O [oleic acid] | antagonizes Th9 polarization | 0.8 | – | – | – | – | – | – | – | – | – | – | – | – | – | – |
| Cn1nccc1Nc1nccc(-c2cc3c(s2)C(C)(C)N(CCN2CCOCC2)C3=O)n1 [temuterkib, reference compound] | – | – | 1577 and 1578 and 1574 and 1552 and 1651 | significantly reduced | 218 and 220 and 219 and 229 and 222 | significantly reduced | 21.9 and 20.8 and 21.6 (2×) and 21.7 | significantly reduced | 1115 (2×) and 1113 | 0.84 and 0.88 and 0.8 and 0.91 and 1 | almost completely abrogated IL-9 production | – | – | – | – | – |
| CC(=O)Nc1cccc(-n2c(=O)n(C3CC3)c(=O)c3c(Nc4ccc(I)cc4F)n(C)c(=O)c(C)c32)c1 [trametinib, reference compound] | – | – | – | significantly reduced | – | significantly reduced | – | significantly reduced | – | – | almost completely abrogated IL-9 production | 1461 and 1480 and 1452 (2×) and 1443 | 177 and 192 and 187 (2×) and 180 | 19.1 and 22.5 and 21.5 and 19.6 and 18.9 | 942 and 929 and 920 | 0.7 and 0.66 and 0.89 and 0.62 and 0.69 |
